The METLIN SMRT retention time set (Domingo-Almenara et al. 2019)

Experiment: gradient 5% acetonitrile 3 min, to 50% in 2 min, to 85% in 15 min, held 3 min, 100 µL/min
Conditions: column: Zorbax Extend-C18 2.1 x 50 mm; eluents: water / acetonitrile, 0.1% formic acid
In short: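 Retention time was recorded from adduct peaks, which were picked computationally and each inspected manually. Pure standards ran in mixtures of ~100 molecules on HPLC coupled to a quadrupole time-of-flight mass spectrometer, in positive and negative ionization mode, through a Zorbax Extend-C18 column (2.1 × 50 mm, 1.8 μm) at 100 μL/min. Eluents were water and acetonitrile, each with 0.1% formic acid.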

Row | RP-LC retention time [s] | SMILES
1 | 717 | Cc1cc(C)n(-c2cc(N3CCCC(C(=O)Nc4nnc(C)s4)C3)ncn2)n1 (stereo not drawn)
2 | 670 | O=C1NC(=O)N2CCSC2(Cc2ccccc2)N1 (stereo not drawn)
3 | 1090 | CCOc1ccc(N2CC(c3nc(-c4ccc(C)cc4)no3)CC2=O)cc1 (stereo not drawn)
4 | 642 | OCCNCc1ccc(-c2ccc(Cl)cc2Cl)o1
5 | 756 | COCCNC(=O)C1CCCN(c2nn3cc(-c4ccc(F)cc4)nc3s2)C1 (stereo not drawn)
6 | 807 | Cc1nc(CCNS(=O)(=O)c2cccc(C(F)(F)F)c2)no1
7 | 663 | COc1ccc(CNC(=O)C2CCCN(c3cc(=O)n(C)c(=O)n3C)C2)cc1 (stereo not drawn)
8 | 897 | COc1ccccc1CCN1CC(=O)N(c2ccc(C)c(C)c2)[C@@H]2CS(=O)(=O)C[C@@H]21
9 | 899 | Cc1ccccc1CNC(=O)C1(C)CCCN(C(=O)Nc2ccc(F)cc2)C1 (stereo not drawn)
10 | 639 | O=C(Nc1ccccc1)C1(CCO)CC12CCOCC2 (stereo not drawn)
11 | 726 | N#Cc1ccc(N2C=C(C(=O)N3CCOCC3)S(=O)(=O)c3ccc(F)cc32)cc1
12 | 920 | CCOC(=O)c1cc(S(=O)(=O)N2CCCC2C(=O)Nc2ccc(F)cc2)cn1C (stereo not drawn)
13 | 668 | COc1ccc(CCN(C)CCc2ccc(OC)c(OC)c2)cc1OC
14 | 656 | CCc1nccn1Cc1noc(-c2cccc(Cl)c2)n1
15 | 653 | O=C(c1cccs1)N1CCC(n2c(C3CCCC3)nc3cccnc32)C1 (stereo not drawn)
16 | 686 | CNC(=O)CCC(=O)N1c2ccccc2NC2=C(C(=O)CC(C)(C)C2)C1c1ccccc1 (stereo not drawn)
17 | 631 | O=C(c1ccco1)N1CCC2(CC1)NCCc1c2[nH]c2ccccc12
18 | 604 | Cc1ccc(NC(=O)N2CC(n3ccnc3)C2)cc1C
19 | 1110 | CC(C)c1nn2c(S(=O)(=O)NC3CCCCC3)c(C(C)C)nc2s1
20 | 707 | O=C(CCCc1nc2cccnc2n1Cc1ccc(F)cc1)N1CCCC1
21 | 565 | CCOC(=O)c1cnc2c(C)cc(C)cc2c1NCCCN(C)C
22 | 1160 | CNC(=O)c1c(NC(=O)c2cccc(Cl)c2)sc2c1CCC2
23 | 620 | CCC(=O)N1CCc2cc(N3CC(C(=O)NC4CC4)CC3=O)ccc21 (stereo not drawn)

Row | RP-LC retention time [s] | SMILES
24 | 553 | O=C([C@@H]1C[C@H](Oc2cccnc2)CN1C(=O)c1ccoc1)N1CCCC1
25 | 690 | CC(=O)N1CCc2cc(N3CC(C(=O)Nc4ccc(F)cc4C)CC3=O)ccc21 (stereo not drawn)
26 | 1080 | CC(C)NC(=O)c1cc2c(s1)N(CC1CC1)CCCC2
27 | 1100 | Cc1cc(=O)n(CC(=O)Nc2ccccc2)c(-c2ccc(Cl)cc2)n1
28 | 1120 | COc1ccc2[nH]c3c(c2c1)CCN1C(=O)N(c2ccc(Cl)c(Cl)c2)C(=O)C31C (stereo not drawn)
29 | 718 | O=C(NC1CCN(C(=O)c2cc(-c3cccc(Cl)c3)n[nH]2)CC1)c1cccs1
30 | 614 | c1cncc(-c2nc(-c3ccc4c(c3)nnn4CCN3CCCCC3)no2)c1
31 | 722 | COC(=O)c1ccccc1C(=O)N(Cc1cccnc1)c1nc2ccc(F)cc2s1
32 | 781 | Cc1cccc(NC(=O)C2CCN(S(=O)(=O)c3cn(C(C)C)cn3)CC2)c1
33 | 785 | CCN1C(=O)C2(CCN(C(=O)c3c(C)noc3C)CC2)c2ccccc21
34 | 773 | COc1ccc(C(=O)Nc2nnc(C3CC(=O)N(c4ccc(Cl)cc4)C3)o2)cc1 (stereo not drawn)
35 | 569 | CCN1CCN(CCCNC(=O)c2cc3sccc3n2C)CC1
36 | 676 | CCn1c(CCNC(=O)c2ccc(C)c(F)c2)nc2cccnc21
37 | 748 | COc1ccc(-c2cn3c(CC(=O)Nc4ccccc4OC)csc3n2)cc1
38 | 727 | CCOc1ccc(CC(=O)NC2CCN(c3cc(-c4cccs4)[nH]n3)C2)cc1OCC (stereo not drawn)
39 | 780 | Cc1cc(NC(=O)CSc2nc(-c3cccs3)nc3c2c(=O)n(C)c(=O)n3C)no1
40 | 889 | CN1C(=O)C(C)(C(=O)Nc2cccc(Cl)c2)Oc2cccnc21 (stereo not drawn)
41 | 697 | CC(C)NC(=O)N1CCC2(CC1)C(=O)N(C)c1ccccc12
42 | 537 | Cc1cc(C)c2c(N3CCCC3)nc(C(=O)NCc3cccnc3)nc2n1
43 | 752 | O=C1CC(c2ccc(Cl)cc2)Cc2nc(N3CCN(c4ccccn4)CC3)ncc21 (stereo not drawn)
44 | 821 | Cc1c(CC(=O)N2CCC(C(N)=O)CC2)c(=O)oc2c(C)c3occ(C(C)(C)C)c3cc12
45 | 760 | COc1ccc(NC(=O)C2CCN(S(=O)(=O)c3cc(C(=O)N4CCCC4)cs3)CC2)cc1
46 | 804 | Cc1ccn(C(=O)c2ccc(NC(=O)CC(C)C)cc2)n1

Row | RP-LC retention time [s] | SMILES
47 | 680 | CCOc1ccc(S(=O)(=O)N2CCC(C(=O)NCc3ccccn3)CC2)cc1C
48 | 592 | O=C(Nc1ccc2c(c1)OCCO2)N1CCC(Cc2nc(-c3cccnc3)n[nH]2)C1 (stereo not drawn)
49 | 686 | COc1ccc(C(O)CN2CCN(c3ccccc3C)CC2)cc1 (stereo not drawn)
50 | 905 | CCC(C)NS(=O)(=O)c1cc(-c2nc(C)cs2)n(C)c1C (stereo not drawn)
51 | 1020 | COCCn1cc2c3c(cccc31)CN(C(=O)Nc1ccc(C)c(C)c1)CC2
52 | 788 | Cc1cc(C)c(C(=O)N2CCCC(C(=O)NCCC(C)C)C2)[nH]1 (stereo not drawn)
53 | 847 | CCOc1ccc(-c2cc(=O)n(CCCC(=O)Nc3cccc(SC)c3)cn2)cc1
54 | 908 | COC(=O)C1C(=O)C2=C(CC1C)NC(C)=C(C(=O)OC(C)C)C2c1ccccc1OC (stereo not drawn)
55 | 808 | O=C(NCc1ccco1)C1CCCN(c2ccc(=O)n(-c3cccc(Cl)c3)n2)C1 (stereo not drawn)
56 | 1270 | CC(C)CN1CCCCc2cc(C(=O)NC(C)(C)C)sc21
57 | 694 | CN(Cc1nc2ccccc2n1CC(=O)N(C)c1ccccc1)C(=O)c1ccco1
58 | 588 | CCN1CCN(c2cc(C)c3cc(NC(=S)NCCC(C)C)ccc3n2)CC1
59 | 1060 | Cc1ccc(C)c(N2CCN(c3ccnc(SCC(=O)Nc4ccc(C(C)C)cc4)n3)CC2)c1
60 | 766 | Cc1cc(Cl)ccc1NC(=O)Cc1nnc(-c2ccc3ncccc3c2)o1
61 | 1100 | COc1ccc(-c2noc(Cc3nnc(-c4cccc(Br)c4)o3)n2)cc1
62 | 623 | O=C(Cc1csc(-n2cccc2)n1)N1CCN(c2ccccn2)CC1
63 | 598 | CCC(C)N1CCN(C(=O)CCc2ccc3c(c2)CN(C(=O)C2CC2)CCO3)CC1 (stereo not drawn)
64 | 692 | CNc1nc(NCc2ccc(NC(=O)c3ccc(F)cc3)cc2)c2ccccc2n1
65 | 716 | COc1ccc(-c2nc3cccnc3n2C2CCN(C(=O)c3ccc4c(c3)OCO4)C2)cc1 (stereo not drawn)
66 | 566 | Cc1cc(N2CCN(C(=O)c3ccco3)CC2)nc(N2CCOCC2)n1
67 | 1030 | O=C(Nc1cnc(-c2ccccc2)nc1)c1ccc(F)c(F)c1

Row | SMILES | RP-LC retention time [s]
68 | CCCN1CCC[C@@H](c2cccc(O)c2)C1 | 596
